Data published in patent US8227207B2, “Bioactive peptides derived from the proteins of egg white by means of enzymatic hydrolysis” (Consejo Superior de Investigaciones Cientifcas, priority 2004, dated 2012).
“Also recorded” adds a separate entry of the source. Residues, ends and D or L forms follow the SMILES beside them.

Key:
[1] = molecular target: T1, angiotensin converting enzyme (ACE, EC 3.4.15.1) (Oryctolagus cuniculus, UniProt P12822); type: biochemical; details: for IC50: read-out: ACEI activity IC50, synthetic peptides; for ACEI activity in vitro (in words): peptides
T1 sequence (P12822 34-1310): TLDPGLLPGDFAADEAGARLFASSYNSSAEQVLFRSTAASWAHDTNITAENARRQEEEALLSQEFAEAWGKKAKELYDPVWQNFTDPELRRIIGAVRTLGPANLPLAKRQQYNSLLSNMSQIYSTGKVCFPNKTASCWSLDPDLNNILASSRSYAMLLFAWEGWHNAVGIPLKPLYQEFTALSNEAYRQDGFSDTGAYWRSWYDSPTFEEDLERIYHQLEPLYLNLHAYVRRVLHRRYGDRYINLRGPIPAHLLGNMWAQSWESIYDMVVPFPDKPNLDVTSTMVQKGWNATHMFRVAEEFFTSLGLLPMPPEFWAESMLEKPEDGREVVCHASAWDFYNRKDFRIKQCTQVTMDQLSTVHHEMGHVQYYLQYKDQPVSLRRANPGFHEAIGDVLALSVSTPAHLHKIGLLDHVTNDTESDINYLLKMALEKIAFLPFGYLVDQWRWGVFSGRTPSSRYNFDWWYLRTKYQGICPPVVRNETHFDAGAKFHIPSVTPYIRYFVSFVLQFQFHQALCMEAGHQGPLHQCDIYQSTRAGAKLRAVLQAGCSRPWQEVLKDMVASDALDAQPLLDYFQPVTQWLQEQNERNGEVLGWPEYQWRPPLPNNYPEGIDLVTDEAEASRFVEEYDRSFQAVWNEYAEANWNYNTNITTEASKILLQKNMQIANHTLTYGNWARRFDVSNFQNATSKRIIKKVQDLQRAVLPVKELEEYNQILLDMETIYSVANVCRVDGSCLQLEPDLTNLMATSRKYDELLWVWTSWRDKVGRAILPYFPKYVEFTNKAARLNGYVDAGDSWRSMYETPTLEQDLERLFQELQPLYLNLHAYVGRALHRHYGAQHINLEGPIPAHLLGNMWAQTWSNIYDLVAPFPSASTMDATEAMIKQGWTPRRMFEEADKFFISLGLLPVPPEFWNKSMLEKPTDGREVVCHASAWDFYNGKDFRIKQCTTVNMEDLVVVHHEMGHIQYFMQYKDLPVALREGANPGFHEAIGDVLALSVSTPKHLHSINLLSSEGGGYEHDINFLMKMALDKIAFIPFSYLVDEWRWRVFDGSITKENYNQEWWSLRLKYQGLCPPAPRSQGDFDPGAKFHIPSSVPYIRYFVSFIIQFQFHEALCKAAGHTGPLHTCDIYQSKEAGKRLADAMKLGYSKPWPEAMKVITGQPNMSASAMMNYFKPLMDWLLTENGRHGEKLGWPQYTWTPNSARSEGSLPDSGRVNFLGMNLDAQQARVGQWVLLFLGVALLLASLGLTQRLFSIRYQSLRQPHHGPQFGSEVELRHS
Protocol: The inhibitory activity of the angiotensin converting enzyme (ACE) is measured in vitro according to the method of D. W. Cushman and H. S. Cheung (Spectrophotometric assay and properties of the angiotensin-converting enzyme of rabbit lung. Biochemical Pharmacology, 1971, 20: 1637-1648), later on modified by Y. K. Kim, S. Yoon, D. Y. Yu, B. Lönnerdal and B. H. Cheung (Novel angiotensin-I-converting enzyme inhibitory peptides derived from recombinant human αs1-casein expressed in Escherichia coli, Journal of Dairy Research 1999, 66, 431-439).
The substrate hippuryl histidyl leucine (HHL, Sigma Chemicals Co., St. Louis, Mo., USA) is dissolved in a 0.1 M borate buffer with 0.3 M NaCl pH 8.3 to obtain a final concentration of 5 mM. To 100 μl of substrate are added 40 μl of each of the samples whose ACEI activity it is wished to determine. The ACE enzyme (EC 3.4.15.1, Sigma) is added, dissolved in 50% glycerol and diluted 1/10 in bidistilled water at the moment of conducting the assay. The reaction is carried out at 37° C. for 30 minutes in a water-bath. The enzyme is deactivated by lowering the pH with 150 μl of 1 N HCl. The hippuric acid formed is extracted with 1000 μl of ethyl acetate. Following vortex stirring for 20 seconds, it is centrifuged at 4000 rpm for 10 minutes at room temperature. 750 μl of the organic phase are taken and evaporated by heating at 95° C. for 10 minutes. The hippuric acid residue is redissolved in 800 μl of bidistilled water and, following stirring for 20 seconds, the absorbency at 228 nm is measured in a Dur-70 spectrophotometer from Beckman Instruments, Inc., Fullerton, USA.
In order to calculate the percentage of ACEI activity, the following formula is used
The blank is used for correcting the background absorbency. This contains substrate, enzyme and 20 μl of bidistilled water in place of the sample, and the reaction is halted at zero time. The control implies a hundred percent of the enzymatic action on the substrate in the absence of inhibitors and contains 20 μl of water in place of the sample and is incubated the same time as the sample.
The results are presented as the IC50 (μM or μg/ml) or concentration at which 50% of the enzyme's activity is inhibited. The concentration of protein is determined by means of the bicinchonomic acid (BCA) assay (Pierce, Rockford, Ill., USA) using bovine seroalbumin as reference.

[2] = system: spontaneously hypertensive rats (SHR); experiment: Antihypertensive activity: systolic arterial pressure (tail cuff) in spontaneously hypertensive rats; type: in vivo, rat; details: for time of maximum drop in SAP after administration: intragastric probe; for drop in systolic arterial pressure (SAP) / anti-hypertensive activity (in words): single administration by intragastric probe
Protocol: (§1) The effect is studied of various identified peptides and of some products containing them (for example egg white hydrolysed with pepsin for 3 hours and the fraction of it less than 3000 Da) on the arterial pressure of spontaneously hypertensive rats (SHR) and Wistar-Kyoto rats (WKY) which are the normotense controls for the SHR.
(§2) This study is conducted with SHR (10) and WKY of 17-24 weeks old and weight between 300 and 350 g, coming from Charles River Laboratories España, S. A. The rats are kept in cages of five by five and maintained at a stable temperature of 25° C. with light-dark cycles of 12 hours, ingesting freely available water and food. In order to carry out the measurement of systolic arterial pressure (SAP) “tail cuff” equipment is used (Le5001, Letica) which automatically provides a digital value of the SAP and records and facilitates the cardiac frequency of the animals. Various measurements are made and the average of all of them is obtained in order to achieve a reliable value of the SAP. Before positioning the cuff and transducer in the tail of the rats, the rats are exposed to a temperature of close to 30° C. in order to facilitate dilation of the caudal artery. Also, in order to ensure the reliability of the measurement, the animals are made to get used to the procedure for two weeks prior to conducting each assay in question.
(§3) The administration of the products to be assayed is done by means of an intragastric probe in a time margin of between 9 and 10 o'clock in the morning. The SHR used for the study had SAP values of between 230 and 280 mm Hg. The WKY used for the study at that moment had SAP values of between 160 and 200 mm Hg. Measurements of the SAP were taken from the animals periodically, every 2 hours, up to 8 hours post-administration of the products to be assayed; in addition, a SAP measurement was taken 24 hours after the administration of those products. As negative control (in order to establish the circadian variation of the SAP in probed rats) the measurements of the SAP obtained in rats which had been administered 1 ml of water by means of intragastric probe were used. As positive control, the measurements of the SAP obtained in rats which had been administered 50 mg/kg of Captopril (prototype ACEI drug) by means of intragastric probe were used. This dose of Captopril was administered to each rat in a volume of 1 ml. In order to establish the effect of the unhydrolysed egg white on the arterial pressure of the animals, similar assays to those described above were conducted, in which the animals were treated by the same procedure with 200 mg/kg of previously freeze-dried egg white (reference).
The results obtained are grouped and the mean±the standard error of measurement (SEM) is obtained for a minimum of 9 homogenous assays. The data of the treated animals are always compared with the data deemed to be a negative control. In order to compare them and obtain the statistical significance, Student's t-test for unpaired data is used and the difference for values of p<0.05 is considered significant.

Wistar-Kyoto rats (WKY) = experiment: Systolic arterial pressure (tail cuff) in normotense Wistar-Kyoto rats; type: in vivo, rat; details: highest dose used, intragastric probe
Protocol: as §1, §2, §3
The results obtained are grouped and the mean±the standard error of measurement (SEM) is obtained for a minimum of 9 homogenous assays. […]

`CC[C@H](C)[C@H](NC(=O)[C@H](CCC(N)=O)NC(=O)[C@@H](N)Cc1ccc(O)cc1)C(=O)NCC(=O)N[C@@H](CC(C)C)C(=O)O` [SEQ. ID. N^o 1, YQIGL] (H-YQIGL-OH; N-terminus and C-terminus assumed) showed an IC50 [1] of 174 µM.

In the case of `CSCC[C@H](NC(=O)[C@H](C)NC(=O)[C@H](CC(C)C)NC(=O)[C@H](C)NC(=O)[C@@H](N)CO)C(=O)O` [SEQ. ID. N^o 8, SALAM] (H-SALAM-OH), the IC50 [1] is reported as 229 µM.

`CC[C@H](C)[C@H](NC(=O)[C@H](CO)NC(=O)[C@@H](N)CCC(=O)O)C(=O)N[C@H](C(=O)N[C@@H](CC(N)=O)C(=O)N[C@@H](Cc1ccccc1)C(=O)O)[C@@H](C)CC` [SEQ. ID. N^o 12, ESIINF] (H-ESIINF-OH) showed an IC50 [1] greater than 1000 µM.

`CC[C@H](C)[C@H](NC(=O)[C@H](CC(=O)O)NC(=O)[C@@H](N)CCCNC(=N)N)C(=O)N[C@@H](CC(C)C)C(=O)N[C@@H](CC(N)=O)C(=O)N[C@@H](CCC(N)=O)C(=O)O` [SEQ. ID. N^o 7, RDILNQ] (H-RDILNQ-OH) gave an IC50 [1] of 436 µM.

`CC(C)C[C@H](NC(=O)[C@H](Cc1ccccc1)NC(=O)[C@@H]1CCCN1C(=O)[C@H](Cc1c[nH]cn1)NC(=O)[C@H](CC(=O)O)NC(=O)[C@H](C)NC(=O)[C@@H](N)CCCNC(=N)N)C(=O)O` [SEQ. ID. N^o 3, RADHPFL] (H-RADHPFL-OH; N-terminus and C-terminus assumed) was tested, and the “time of maximum drop in SAP after administration” value [2] was 6 h, the “drop in systolic arterial pressure (SAP) / anti-hypertensive activity (in words)” value [2] was “possess anti-hypertensive activity; also recorded: significant dose-dependent drop in the SAP; also recorded: clear and pronounced anti-hypertensive effect; also recorded: display anti-hypertensive activity” and the “ACEI activity in vitro (in words)” value [1] was “potent ACEI activity”. For the same molecule, the IC50 [1] was 6.2 µM and the “change in SAP in normotense rats (in words)” value (Wistar-Kyoto rats (WKY)) was “not in normotensed Wistar-Kyoto rats; also recorded: none of these compounds modifies the SAP”.

In the case of `CC[C@H](C)[C@H](N)C(=O)N[C@H](C(=O)N[C@@H](Cc1ccccc1)C(=O)O)C(C)C` [SEQ. ID. N^o 2, IVF], the “time of maximum drop in SAP after administration” value [2] is reported as 6 h, the “drop in systolic arterial pressure (SAP) / anti-hypertensive activity (in words)” value [2] is reported as “possess anti-hypertensive activity; also recorded: significant dose-dependent drop in the SAP; also recorded: clear and pronounced anti-hypertensive effect; also recorded: display anti-hypertensive activity” and the “ACEI activity in vitro (in words)” value [1] is reported as “potent ACEI activity”. For the same molecule, the “change in SAP in normotense rats (in words)” value (Wistar-Kyoto rats (WKY)) was “not in normotensed Wistar-Kyoto rats; also recorded: none of these compounds modifies the SAP”.

`CC[C@H](C)[C@H](NC(=O)[C@H](CC(C)C)NC(=O)[C@@H](N)CCC(=O)O)C(=O)N[C@@H](CC(N)=O)C(=O)O` [SEQ. ID. N^o 14, ELIN] (H-ELIN-OH) gave an IC50 [1] greater than 1000 µM.

With `CC(C)C[C@H](NC(=O)CNC(=O)[C@H](CO)NC(=O)[C@@H](NC(=O)[C@H](CCC(=O)O)NC(=O)[C@H](CC(=O)O)NC(=O)[C@@H]1CCCN1C(=O)[C@H](CC(C)C)NC(=O)[C@H](CC(C)C)NC(=O)[C@@H](N)C(C)C)C(C)C)C(=O)O` [SEQ. ID. N^o 13] (H-VLLPDEVSGL-OH) the IC50 [1] was greater than 1000 µM.

Molecule `CC[C@H](C)[C@H](NC(=O)[C@@H]1CCCN1C(=O)[C@H](CCC(=O)O)NC(=O)[C@H](CC(C)C)NC(=O)CNC(=O)CNC(=O)[C@H](CCCNC(=N)N)NC(=O)[C@@H](N)Cc1ccc(O)cc1)C(=O)N[C@@H](CC(N)=O)C(=O)N[C@@H](Cc1ccccc1)C(=O)O` [SEQ. ID. N^o 15] (H-YRGGLEPINF-OH) has an IC50 [1] greater than 1000 µM.

B1: unhydrolysed ovalbumin: ovalbumin grade VI (99% purity) (Sigma), unhydrolysed (protein)
chain: GSIGAASMEFCFDVFKELKVHHANENIFYCPIAIMSALAMVYLGAKDSTRTQINKVVRFDKLPGFGDSIEAQCGTSVNVHSSLRDILNQITKPNDVYSFSLASRLYAEERYPILPEYLQCVKELYRGGLEPINFQTAADQARELINSWVESQTNGIIRNVLQPSSVDSQTAMVLVNAIVFKGLWEKAFKDEDTQAMPFRVTEQESKPVQMMYQIGLFRVASMASEKMKILELPFASGTMSMLVLLPDEVSGLEQLESIINFEKLTEWTSSNVMEERKIKVYLPRMKMEEKYNLTSVLMAMGITDVFSSSANLSGISSAESLKISQAVHAAHAEINEAGREVVGSAEAGVDAASVSEEFRADHPFLFCIKHIATNAVLFFGRCVSP
With B1 the “ACEI activity IC50” value ([1]; protein concentration, product as such) was greater than 750 µg/mL.
